Laboratory results: PMC9822287, “The Fate and Intermediary Metabolism of Soyasapogenol in the Rat” (Molecules, 2022)
Read-outs that look alike come from different tables or passages of the source. Each block holds one molecule with its values, some of them ahead of it.

How the values were obtained:
[1] = Pharmacokinetics of oral administration in rats (plasma); assay type: in vivo; details: rat; for concentration at 1 h / bioavailability / AUC(0-inf) / AUC(0-t) / CL/F / half-life / Cmax / Tmax: plasma; for concentration at 1 h: 1.0 h postadministration; for bioavailability: oral AUC(0-∞)/intravenous AUC(0-∞), read-out: Bioavailability (F); for AUC(0-t): mean n = 6; for CL/F: read-out: CLz/F (clearance) (converted); for half-life: read-out: T1/2z (biological half-life) (converted); for Cmax / Tmax: po; for Ratio of B/A in plasma level (AUC): ratio of soyasapogenol B to soyasapogenol A in plasma
Experimental: The experiments were performed according to Kamo et al. The rats were divided into three groups (n = 8). All rats were fasted for 14–15 h prior to soyasapogenol A or B administration. All rats were orally administered soyasapogenol A or B via direct stomach intubation.
Blood samples were collected from the tail vein at 0 (pre-dose), 0.25, 0.5, 1, 2, 4, 6, 8, and 24 h after administration. The sample volume was 200 μL. The samples were immediately transferred to a centrifuge tube and treated with a sodium citrate anticoagulant. This fraction was then centrifuged at 10,000 rpm for 10 min, and the upper plasma was collected and placed in a refrigerator at −80 °C for later use.
(§1) The soyasapogenol concentrations in the rat plasma solutions were determined according to the method published in [5]. At first, the plasma samples were thawed to 4 °C and transferred (20 to 100 μL) to an Eppendorf tube. After adding the same volume of 0.2 mol/L sodium acetate buffer to each sample, 3 µL aliquots of glucuronidase (Sigma; extracted from Helix pomatia, containing 95,600 units/mL glucuronidase and 1100 units/mL sulfatase) were added to analyze the glucuronyl- and sulfatide-conjugated forms of the soyasapogenols, and the mixture was incubated at 37 °C for 12 h. The samples were mixed thoroughly, and then they were centrifuged at 10,000 rpm for 15 min. The supernatant was blown with nitrogen gas until it was dry, and residual supernatant was dissolved with 1 mL methanol. Subsequently, after filtration, the samples were analyzed according to the method published in [5].
The bioavailability parameters were calculated by comparing AUCoral postadministration with AUCiv post-soyasapogenol I.V. injection:%Bioavailability = [(AUCoral) × Doseiv/(AUCiv) × Doseoral] × 100
The calculation formula is as follows: F = oral administration AUC(0-∞)/intravenous injection AUC(0-∞).

[2] = Pharmacokinetics of intravenous injection in rats (plasma); assay type: in vivo; details: rat, intravenous (I.V.); for AUC(0-inf) / Cmax / Tmax / AUC(0-t) / half-life: plasma; for AUC(0-t): mean n = 6; for half-life: iv, read-out: T1/2z (half-life) (converted)
Experimental: The rats’ dorsal foot veins were cannulated with a standard syringe needle to administer the soyasapogenol. As presented in Table 5, the dosages of soyasapogenol A were 10 mg/kg and 20 mg/kg, and the dosages of soyasapogenol B were 25 mg/kg and 50 mg/kg. Blood samples were collected from the tail vein just prior to soyasapogenol administration (0 h) and 0.03, 0.08, 0.25, 0.5, 1, 2, 4, 6, 8, and 24 h after soyasapogenol loading; blood soyasapogenol levels were measured immediately. The collected blood sample volume was approximately 200 μL, and the samples were subjected to the same sample pretreatment procedure as described below.
as §1

Caco-2 cell monolayer = test system: Caco-2 cell monolayer; design: method as in PMID 24698352; details: cited from earlier work

concentration at 1 h ([1]; oral, 10 mg/kg by gavage): 29000 ± 10000 ng/mL
concentration at 1 h ([1]; oral, 20 mg/kg by gavage): 7000 ± 6000 ng/mL
bioavailability ([1]; 10 mg/kg): 73.1%
bioavailability ([1]; 20 mg/kg): 67.3%
AUC(0-inf) ([1]; oral (P.O.), 10 mg/kg): 50.7 µg·h/mL
AUC(0-t) ([1]; oral (P.O.), 10 mg/kg): 35.2 µg·h/mL
CL/F ([1]; oral (P.O.), 10 mg/kg): 6.57 mL/min/kg
half-life ([1]; oral (P.O.), 10 mg/kg): 2.55 h
AUC(0-inf) ([1]; oral (P.O.), 20 mg/kg): 95.5 µg·h/mL
AUC(0-t) ([1]; oral (P.O.), 20 mg/kg): 88.6 µg·h/mL
CL/F ([1]; oral (P.O.), 20 mg/kg): 3.48 mL/min/kg
half-life ([1]; oral (P.O.), 20 mg/kg): 1.97 h
Cmax ([1]; 10 mg/kg, oral (P.O.), 10 mg/kg, read-out: Cmax (peak concentration)): 8590 ng/mL
Tmax ([1]; 10 mg/kg, oral (P.O.), 10 mg/kg, read-out: Tmax (peak time)): 2 h
Cmax ([1]; 10 mg/kg, oral, at 1.0 h postadministration, printed as the 10 mg/kg dose (second mention), read-out: Cmax): 29000 ng/mL
Tmax ([1]; 10 mg/kg, oral, printed as the 10 mg/kg dose (second mention), read-out: time of maximum plasma concentration): 1 h
Cmax ([1]; 20 mg/kg, oral (P.O.), 20 mg/kg, read-out: Cmax (peak concentration)): 29000 ng/mL
Tmax ([1]; 20 mg/kg, oral (P.O.), 20 mg/kg, read-out: Tmax (peak time)): 1 h
AUC(0-inf) ([2]; 10 mg/kg): 69.4 µg·h/mL
Cmax ([2]; 10 mg/kg): 31700 ng/mL
Tmax ([2]; 10 mg/kg): 1.8 min
AUC(0-t) ([2]; 10 mg/kg): 56 µg·h/mL
AUC(0-inf) ([2]; 20 mg/kg): 142 µg·h/mL
Cmax ([2]; 20 mg/kg): 102000 ng/mL
Tmax ([2]; 20 mg/kg): 1.8 min
AUC(0-t) ([2]; 20 mg/kg): 114 µg·h/mL
CLz/F ([2]; 10 mg/kg): 4.8 mL/min/kg
T1/2z (half-life) ([2]; 10 mg/kg): 3.535 h
CLz/F ([2]; 20 mg/kg): 2.35 mL/min/kg
T1/2z (half-life) ([2]; 20 mg/kg): 3.475 h
half-life ([2]; 10 mg/kg, 10 mg/kg): 3.54 h
half-life ([2]; 20 mg/kg, 20 mg/kg): 3.48 h
SMILES: CC1(C)C[C@H]2C3=CC[C@@H]4[C@@]5(C)CC[C@H](O)[C@](C)(CO)[C@@H]5CC[C@@]4(C)[C@]3(C)CC[C@@]2(C)[C@H](O)[C@@H]1O [Soyasapogenol A]

bioavailability ([1]; 25 mg/kg): 60.9%
bioavailability ([1]; 50 mg/kg): 69%
AUC(0-inf) ([1]; oral (P.O.), 25 mg/kg): 111 µg·h/mL
AUC(0-t) ([1]; oral (P.O.), 25 mg/kg): 96 µg·h/mL
CL/F ([1]; oral (P.O.), 25 mg/kg): 3.02 mL/min/kg
half-life ([1]; oral (P.O.), 25 mg/kg): 2.29 h
AUC(0-inf) ([1]; oral (P.O.), 50 mg/kg): 178 µg·h/mL
AUC(0-t) ([1]; oral (P.O.), 50 mg/kg): 157 µg·h/mL
CL/F ([1]; oral (P.O.), 50 mg/kg): 1.87 mL/min/kg
half-life ([1]; oral (P.O.), 50 mg/kg): 2.27 h
time needed to reach peak concentration ([1]; oral administration, dose not stated): 8 h
Ratio of B/A in plasma level (AUC) ([1]; oral, soyasapogenol B 25 mg/kg column): 2.17
Ratio of B/A in plasma level (AUC) ([1]; oral, soyasapogenol B 50 mg/kg column): 1.87
Cmax ([1]; 25 mg/kg, oral (P.O.), 25 mg/kg, read-out: Cmax (peak concentration)): 26400 ng/mL
Tmax ([1]; 25 mg/kg, oral (P.O.), 25 mg/kg, read-out: Tmax (peak time)): 2 h
Cmax ([1]; 50 mg/kg, oral (P.O.), 50 mg/kg, read-out: Cmax (peak concentration)): 40300 ng/mL
Tmax ([1]; 50 mg/kg, oral (P.O.), 50 mg/kg, read-out: Tmax (peak time)): 2 h
Tmax ([1]; oral administration, dose not distinguished, read-out: Tmax): 2 h
AUC(0-inf) ([2]; 25 mg/kg): 181 µg·h/mL
Cmax ([2]; 25 mg/kg): 43300 ng/mL
Tmax ([2]; 25 mg/kg): 1.8 min
AUC(0-t) ([2]; 25 mg/kg): 76.2 µg·h/mL
AUC(0-inf) ([2]; 50 mg/kg): 258 µg·h/mL
Cmax ([2]; 50 mg/kg): 66800 ng/mL
Tmax ([2]; 50 mg/kg): 1.8 min
AUC(0-t) ([2]; 50 mg/kg): 154 µg·h/mL
CLz/F ([2]; 25 mg/kg): 4.1 mL/min/kg
T1/2z (half-life) ([2]; 25 mg/kg): 5.138 h
CLz/F ([2]; 50 mg/kg): 1.28 mL/min/kg
T1/2z (half-life) ([2]; 50 mg/kg): 5.528 h
half-life ([2]; 25 mg/kg, 25 mg/kg): 5.14 h
half-life ([2]; 50 mg/kg, 50 mg/kg): 5.53 h
SMILES: CC1(C)C[C@@H](O)[C@]2(C)CC[C@]3(C)C(=CC[C@@H]4[C@@]5(C)CC[C@H](O)[C@](C)(CO)[C@@H]5CC[C@]43C)[C@@H]2C1 [Soyasapogenol B]
amount (%) that permeates into the basolateral side from the apical side (Caco-2 cell monolayer): much higher than that of soyasapogenol A
